Assay results: ChEMBL document CHEMBL1201862, “PubChem BioAssay data set” (2004)
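Interpolation was linear, between the two tested concentrations surrounding the appropriate level; five concentrations were tested over 48 hours in 96-well plates. GI50: concentration for 50% inhibition of growth.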 Activity calls are given as the source filed them. Rule as the data show it: active = GI50 up to about 1.1 µM and inactive = higher.

How the values were obtained:
Assay in all cases: NCI anticancer screen, dose series, 48 h
[1] = test system: SN12C
[2] = test system: OVCAR-5
[3] = test system: OVCAR-4
[4] = test system: CCRF-CEM
[5] = test system: SNB-75
[6] = test system: OVCAR-3
[7] = test system: MDA-MB-231
[8] = test system: HT-29
[9] = test system: ACHN
[10] = test system: SF-539
[11] = test system: PC-3
[12] = test system: SK-MEL-28
[13] = test system: OVCAR-8
[14] = test system: UACC-62
[15] = test system: NCI-H23
[16] = test system: T47D
[17] = test system: RPMI-8226
[18] = test system: NCI-H460
[19] = test system: COLO 205
[20] = test system: HOP-92

Measured: GI50

CC1(C)C2CCC1(CC(=O)O)C(Cl)C2 (stereo not given)
inactive: [1] > 100 µM | [2] > 100 µM | [3] > 100 µM | [4] > 100 µM | [5] > 100 µM | [6] > 100 µM | [7] > 100 µM | [8] > 100 µM | [9] > 100 µM | [10] > 100 µM | [11] > 100 µM | [12] > 100 µM | [13] > 100 µM | [14] > 100 µM | [15] > 100 µM | [16] > 100 µM | [17] > 100 µM | [18] > 100 µM | [19] > 100 µM

CCOP(=O)(OCC)/C(C#N)=C/c1cccn1CC(C)C
inactive: [1] > 100 µM | [2] > 100 µM | [5] > 100 µM | [6] > 100 µM | [7] 57.3 µM | [8] > 100 µM | [9] > 100 µM | [10] > 100 µM | [11] 93.3 µM | [12] > 100 µM | [13] > 100 µM | [14] > 100 µM | [15] > 100 µM | [16] 36.6 µM | [18] > 100 µM | [19] > 100 µM | [20] > 100 µM

CCC/N=C/c1cc(Cc2ccc(O)c(/C=N/CCC)c2)ccc1O
inactive: [1] 3.82 µM | [2] 18.4 µM | [3] 5.47 µM | [5] 2.86 µM | [6] 2.91 µM | [7] 9.89 µM | [8] 12.5 µM | [9] 20.7 µM | [10] 2.77 µM | [11] 1.82 µM | [13] 3.1 µM | [14] 5.53 µM | [15] 6.46 µM | [16] 1.45 µM | [18] 18.4 µM | [19] 16.1 µM | [20] 1.85 µM

Cc1[nH]c(=O)c2oc3cc4ccccc4cc3c2c1C(=O)O
inactive: [1] > 10 µM | [2] > 10 µM | [3] > 10 µM | [5] > 10 µM | [6] > 10 µM | [7] > 10 µM | [8] > 10 µM | [9] > 10 µM | [10] > 10 µM | [11] > 10 µM | [13] > 10 µM | [14] > 10 µM | [15] > 10 µM | [16] > 10 µM | [18] > 10 µM | [20] > 10 µM

C=C1[C@H](OC(C)=O)[C@H]2[C@@H](OC(C)=O)[C@@H](C)C[C@]2(C)C(=O)[C@H](C)/C=C/C(C)(C)C(=O)[C@H](OCC(C)C)[C@H]1OC(C)=O
inactive: [1] > 25 µM | [2] > 25 µM | [3] > 25 µM | [4] 20.2 µM | [5] > 25 µM | [6] > 25 µM | [7] > 25 µM | [9] > 25 µM | [10] 19.6 µM | [11] > 25 µM | [13] > 25 µM | [14] > 25 µM | [15] > 25 µM | [16] > 25 µM | [18] 12.6 µM | [19] 12.9 µM | [20] > 25 µM

O=CC12c3ccccc3C(c3ccccc31)C1C(=O)NC(=O)C12 (stereo not given)
inactive: [1] > 100 µM | [2] > 100 µM | [3] > 100 µM | [4] 41.7 µM | [5] 39 µM | [6] > 100 µM | [7] > 100 µM | [8] > 100 µM | [9] > 100 µM | [10] > 100 µM | [11] > 100 µM | [12] > 100 µM | [13] > 100 µM | [14] > 100 µM | [15] > 100 µM | [16] 75.3 µM | [18] > 100 µM | [19] > 100 µM | [20] > 100 µM

O=P(O)(O)c1ccc2c(c1)OCCOCCOCCOCCO2
inactive: [1] > 100 µM | [4] > 100 µM | [5] > 100 µM | [7] > 100 µM | [8] > 100 µM | [9] > 100 µM | [10] > 100 µM | [11] > 100 µM | [12] > 100 µM | [13] > 100 µM | [14] > 100 µM | [15] > 100 µM | [16] > 100 µM | [17] > 100 µM | [18] > 100 µM | [19] > 100 µM

O=CC(O)C(O)C(O)C(O)C(=O)NCCCCCCCCCCCCNC(=O)C(O)C(O)C(O)C(O)C=O (stereo not given)
inactive: [2] > 100 µM | [3] > 100 µM | [4] > 100 µM | [6] > 100 µM | [7] > 100 µM | [8] > 100 µM | [9] > 100 µM | [10] > 100 µM | [11] > 100 µM | [12] > 100 µM | [13] > 100 µM | [14] > 100 µM | [15] > 100 µM | [16] > 100 µM | [18] > 100 µM | [19] > 100 µM | [20] > 100 µM

OCCOCn1nncc1Cn1ncc2c(SCc3ccccc3)ncnc21
inactive: [1] 59.4 µM | [2] > 100 µM | [3] 88.5 µM | [5] 60.4 µM | [6] > 100 µM | [7] > 100 µM | [8] 37.7 µM | [9] > 100 µM | [10] 65 µM | [11] 94.8 µM | [12] > 100 µM | [13] 64 µM | [14] > 100 µM | [15] > 100 µM | [16] 80.2 µM | [18] > 100 µM | [19] > 100 µM | [20] 80.9 µM

CC1(C)C2CCC1C(=O)C(C=O)C2 (stereo not given)
inactive: [1] > 100 µM | [2] > 100 µM | [4] > 100 µM | [5] 79.1 µM | [6] > 100 µM | [7] > 100 µM | [8] > 100 µM | [9] > 100 µM | [10] 74.5 µM | [11] > 100 µM | [12] > 100 µM | [13] > 100 µM | [14] > 100 µM | [15] > 100 µM | [16] > 100 µM | [17] > 100 µM | [18] > 100 µM | [19] > 100 µM

CN1CN(c2ccccc2)C2(CCN(CCCN(C)c3ccc(F)cc3)CC2)C1=O
inactive: [1] 34.5 µM | [2] 17.3 µM | [4] 11.2 µM | [5] 16.9 µM | [6] 16 µM | [7] 14.3 µM | [8] 10.1 µM | [9] 22.2 µM | [10] 22.5 µM | [11] 23.4 µM | [12] 20.9 µM | [13] 18.9 µM | [14] 18.7 µM | [15] 19.1 µM | [16] 16.7 µM | [17] 10.7 µM | [18] 16.4 µM | [19] 11.6 µM

O=C(C1OC1c1ccc(F)cc1)C12CC3CC(CC(C3)C1)C2 (stereo not given)
inactive: [1] 16.4 µM | [2] 19.6 µM | [3] 13.8 µM | [4] 6.95 µM | [5] 31 µM | [6] 14.9 µM | [7] 26.5 µM | [8] 20.2 µM | [9] 30 µM | [10] 21.2 µM | [11] 30.7 µM | [12] 24.4 µM | [13] 14.4 µM | [14] 15.2 µM | [15] 22.1 µM | [16] 25.1 µM | [18] 13.3 µM | [19] 16 µM | [20] 20.3 µM

O=[N+]([O-])C(=C(Nc1cccc2cccnc12)Nc1cccc2cccnc12)C(Cl)=C(Cl)Cl
inactive: [1] > 55.1 µM | [2] > 100 µM | [3] 34 µM | [4] 34 µM | [5] > 100 µM | [6] 27.3 µM | [7] 7.35 µM | [8] > 39 µM | [9] 22 µM | [10] > 100 µM | [11] > 76 µM | [12] > 56.9 µM | [13] 33.2 µM | [14] 77.1 µM | [15] 31.6 µM | [16] 29.1 µM | [17] 23.6 µM | [18] 33.4 µM | [19] 31 µM

OCCCCCCCCCCCOc1ccc(C2OCC3(CO2)COC(c2ccc(OCCCCCCCCCCCO)cc2)OC3)cc1 (stereo not given)
inactive: [1] > 50 µM | [2] > 50 µM | [3] > 50 µM | [5] > 50 µM | [6] > 50 µM | [7] > 50 µM | [8] > 50 µM | [9] > 50 µM | [10] > 50 µM | [11] > 50 µM | [12] > 50 µM | [13] > 50 µM | [14] > 50 µM | [15] > 50 µM | [16] > 50 µM | [17] > 50 µM | [18] > 50 µM | [19] > 50 µM

CC(C)(C)O/C=C1/C(=O)OC2C[C@@H](O[Si](C)(C)C(C)(C)C)CC12 (stereo not given in full)
inactive: [1] 34.7 µM | [2] > 100 µM | [3] 74 µM | [4] 42.7 µM | [5] 16.8 µM | [6] 48.4 µM | [7] > 100 µM | [8] 68.1 µM | [9] 72.6 µM | [11] 45.5 µM | [12] > 100 µM | [13] 48.1 µM | [15] 39.7 µM | [16] 23.3 µM | [18] 79.8 µM | [19] 72.9 µM | [20] 43.7 µM
